# Experimental data: patent US7488425B2, “Method for photolyzing organic matter and method for treating wastewater” (Nisshinbo Industries, Inc., priority 2004, dated 2009)
# Where a name gives a salt, the structure may show the parent alone.
# What was measured:
# [1] = Mixing with simple distilled water (phase separation, hydrophobicity); type: physicochemical
# Excerpt: As used herein, “hydrophobic” refers to the property of, after being mixed or stirred with water, separating again into two phases on standing. While it suffices for the hydrophobic ionic liquid to have this quality, when the above photolytic process is employed for the subsequently described wastewater treatment or the like, a hydrophobic ionic liquid with a lower solubility in water will result in a smaller loss of ionic liquid during wastewater treatment and enable treated water having a higher degree of cleanliness to be obtained.
# (§1) The solubility in simple distilled water (25° C.) was about 1.5 wt %.
# [2] = Solubility of the ionic liquid in simple distilled water; type: physicochemical; settings: 25° C.
# Protocol: as §1
SMILES,behaviour when mixed with simple distilled water [1],solubility in simple distilled water [2]
"CCn1cc[n+](C)c1.O=S(=O)([O-])C(F)(F)F [EMIMTfO, 1-ethyl-3-methylimidazolium trifluoromethanesulfonate, reference compound]",forms a homogeneous phase,–
"CC[N+](C)(CC)CCOC [ionic liquid (2), Bis(trifluoromethanesulfonyl)imide Salt of N,N-Diethyl-N-methyl-N-(2-methoxyethyl)ammonium]",separated into two phases,about 1.5 wt %
